What was measured:
[1] = target: T1, HCV NS5B RdRp genotype 1b (Hepatitis C virus genotype 1b, UniProt Q9WMX2); experiment: Modified HCV NS5B RdRp enzyme assay (with preincubation); type: biochemical
T1 construct: The protein was expressed with an 18 amino acid C-terminal truncation to enhance the solubility; made in house; host or cells: E. coli BL21 (DE3), pET21a
Method: HCVNS5B RdRp cloning, expression, and purification. The cDNA encoding the NS5B protein of HCV, genotype 1b, was cloned into the pET21a expression vector. The protein was expressed with an 18 amino acid C-terminal truncation to enhance the solubility. The E. coli competent cell line BL21 (DE3) was used for expression of the protein. Cultures were grown at 37° C. for ˜4 hours until the cultures reached an optical density of 2.0 at 600 nm. The cultures were cooled to 20° C. and induced with 1 mM IPTG. Fresh ampicillin was added to a final concentration of 50 μg/ml and the cells were grown overnight at 20° C.
Cell pellets (3 L) were lysed for purification to yield 15-24 mgs of purified NS5B. The lysis buffer consisted of 20 mM Tris-HCl, pH 7.4, 500 mM NaCl, 0.5% triton X-100, 1 mM DTT, 1 mM EDTA, 20% glycerol, 0.5 mg/ml lysozyme, 10 mM MgCl2, 15 ug/ml deoxyribonuclease I, and Complete TM protease inhibitor tablets (Roche). After addition of the lysis buffer, frozen cell pellets were resuspended using a tissue homogenizer. To reduce the viscosity of the sample, aliquots of the lysate were sonicated on ice using a microtip attached to a Branson sonicator. The sonicated lysate was centrifuged at 100,000×g for 1 hr at 4° C. and filtered through a 0.2 μm filter unit (Corning).
The protein was purified using three sequential chromatography steps: Heparin sepharose CL-6B, polyU sepharose 4B, and Hitrap SP sepharose (Pharmacia). The chromatography buffers were identical to the lysis buffer but contained no lysozyme, deoxyribonuclease I, MgCl2 or protease inhibitor and the NaCl concentration of the buffer was adjusted according to the requirements for charging the protein onto the column. Each column was eluted with a NaCl gradient which varied in length from 5-50 column volumes depending on the column type. After the final chromatography step, the resulting purity of the enzyme is >90% based on SDS-PAGE analysis. The enzyme was aliquoted and stored at −80° C.
Standard HCV NS5B RdRp enzyme assay. HCV RdRp genotype Ib assays were run in a final volume of 60 μl in 96 well plates (Costar 3912). The assay buffer is composed of 20 mM Hepes, pH 7.5, 2.5 mM KCl, 2.5 mM MgCl2, 1 mM DTT, 1.6 U RNAse inhibitor (Promega N2515), 0.1 mg/ml BSA (Promega R3961), and 2% glycerol. All compounds were serially diluted (3-fold) in DMSO and diluted further in water such that the final concentration of DMSO in the assay was 2%. HCV RdRp genotype 1b enzyme was used at a final concentration of 28 nM. A polyA template was used at 6 nM, and a biotinylated oligo-dT12 primer was used at 180 nM final concentration. Template was obtained commercially (Amersham 27-4110). Biotinylated primer was prepared by Sigma Genosys. ^3H-UTP was used at 0.6 μCi (0.29 μM total UTP). Reactions were initiated by the addition of enzyme, incubated at 30° C. for 60 min, and stopped by adding 25 μl of 50 mM EDTA containing SPA beads (4 μg/μl, Amersham RPNQ 0007). Plates were read on a Packard Top Count NXT after >1 hr incubation at room temperature.
Modified HCV NS5B RdRp enzyme assay. A modified enzyme assay was performed essentially as described for the standard enzyme assay except for the following: The biotinylated oligo dT12 primer was precaptured on streptavidin-coated SPA beads by mixing primer and beads in assay buffer and incubating at room temperature for one hour. Unbound primer was removed after centrifugation. The primer-bound beads were resuspended in 20 mM Hepes buffer, pH 7.5 and used in the assay at final concentrations of 20 nM primer and 0.67 μg/μl beads. Order of addition in the assay: enzyme (14 nM) was added to diluted compound followed by the addition of a mixture of template (0.2 nM), ^3H-UTP (0.6 μCi, 0.29 μM), and primer-bound beads, to initiate the reaction; concentrations given are final. Reactions were allowed to proceed for 4 hours at 30° C.
The IC50 values for compounds were determined using seven different [I]. […]

[2] = tested on: HCV replicon; experiment: HCV replicon FRET assay; type: cell-based; details: Hepatitis C virus; FRET assay; read-out: EC50
Method: The IC50 values for compounds were determined using seven different [I]. IC50 values were calculated from the inhibition using the formula y=A+((B−A)/(1+((C/x)^D))). FRET Assay Preparation. To perform the HCV FRET screening assay, 96-well cell culture plates were used. The FRET peptide (Anaspec, Inc.) (Taliani et al., Anal. Biochem. 240:60-67 (1996), hereby incorporated by reference in its entirety) contains a fluorescence donor, EDANS, near one end of the peptide and an acceptor, DABCYL, near the other end. The fluorescence of the peptide is quenched by […] resonance energy transfer (RET) between the donor and the acceptor, but as the NS3 protease cleaves the peptide the products are released from RET quenching and the fluorescence of the donor becomes apparent. The assay reagent was made as follows: 5× cell Luciferase cell culture lysis reagent from Promega (#E153A) diluted to 1× with dH2O, NaCl added to 150 mM final, the FRET peptide diluted to 20 uM final from a 2 mM stock.
To prepare plates, HCV replicon cells, with or without a Renilla luciferase reporter gene, were trypsinized and placed into each well of a 96-well plate with titrated test compounds added in columns 3 through 12; columns 1 and 2 contained a control compound (HCV protease inhibitor), and the bottom row contained cells without compound. The plates were then placed in a CO2 incubator at 37 degrees C.
Assays. Subsequent to addition of the test compounds described above (FRET Assay Preparation), at various times the plate was removed and Alamar blue solution (Trek Diagnostics, #00-100) was added per well as a measure of cellular toxicity. After reading in a Cytoflour 4000 instrument (PE Biosystems), plates were rinsed with PBS and then used for FRET assay by the addition of 30 ul of the FRET peptide assay reagent described above (FRET Assay Preparation) per well. The plate was then placed into the Cytoflour 4000 instrument which had been set to 340 excite/490 emission, automatic mode for 20 cycles and the plate read in a kinetic mode. Typically, the signal to noise using an endpoint analysis after the reads was at least three-fold. Alternatively, after Alamar blue reading, plates were rinsed with PBS, 50 ul of DMEM (high glucose) without phenol red was added and plates were then used for luciferase assay using the Promega Dual-Glo Luciferase Assay System.
Compound analysis was determined by quantification of the relative HCV replicon inhibition and the relative cytotoxicity values. To calculate cytoxicity values, the average Alamar Blue fluorescence signals from the control wells were set as 100% non-toxic. The individual signals in each of the compound test wells were then divided by the average control signal and multiplied by 100% to determine […]. To calculate the HCV replicon inhibition values, an average background value was obtained from the two wells containing the highest amount of HCV protease inhibitor at the end of the assay period. These numbers were similar to those obtained from naïve Huh-7 cells.
The background numbers were then subtracted from the average signal obtained from the control wells and this number was used as 100% activity. The individual signals in each of the compound test wells were then divided by the averaged control values after background subtraction and multiplied by 100% to determine percent activity. EC50 values for a protease inhibitor titration were calculated as the concentration which caused a 50% reduction in FRET or luciferase activity. The two numbers generated for the compound plate, percent cytoxicity and percent activity were used to determine compounds of interest for further analysis.

[3] = modified method (with preincubation)

T1 sequence (Q9WMX2 2420-2992): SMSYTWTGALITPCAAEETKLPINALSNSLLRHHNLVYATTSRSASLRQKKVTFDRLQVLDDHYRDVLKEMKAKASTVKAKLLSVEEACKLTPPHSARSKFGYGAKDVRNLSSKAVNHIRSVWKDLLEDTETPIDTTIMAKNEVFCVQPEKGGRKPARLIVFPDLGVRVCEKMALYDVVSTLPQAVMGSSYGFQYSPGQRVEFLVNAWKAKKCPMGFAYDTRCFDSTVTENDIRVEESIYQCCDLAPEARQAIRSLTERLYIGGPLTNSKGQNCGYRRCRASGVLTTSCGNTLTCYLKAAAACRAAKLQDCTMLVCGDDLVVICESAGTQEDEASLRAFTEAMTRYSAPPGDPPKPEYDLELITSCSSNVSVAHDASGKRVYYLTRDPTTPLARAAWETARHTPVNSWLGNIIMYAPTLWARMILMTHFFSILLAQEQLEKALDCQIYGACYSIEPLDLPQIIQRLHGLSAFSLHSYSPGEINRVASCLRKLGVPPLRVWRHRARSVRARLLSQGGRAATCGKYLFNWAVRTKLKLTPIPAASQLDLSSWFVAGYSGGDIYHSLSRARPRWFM

SMILES | IC50 ([1]; preincubation protocol) [nM] | EC50 [2] [nM] | IC50 [1, 3] [nM]
COc1ccc2c(c1)CC(F)(C(=O)O)Cn1c-2c(C2CCCCC2)c2ccc(C(=O)NS(=O)(=O)N(C)C)cc21 (stereo not shown) | 10 to 1000 | 1000 to 10000 | –
COc1ccc2c(c1)CC(C(=O)N1C[C@@H](C)N[C@@H](C)C1)Cn1c-2c(C2CCCCC2)c2ccc(C(=O)NS(=O)(=O)N(C)C)cc21 (stereo partly shown) | 10 to 1000 | 50 to 1000 | –
O=C(NC1(C(=O)Nc2nccs2)CCCC1)c1ccc2c(C3CCCCC3)c3n(c2c1)CC=Cc1ccccc1-3 | – | 10 to 1000 | –
O=C(NC1(C(=O)O)CCCC1)c1ccc2c(C3CCCCC3)c3n(c2c1)CCCCNc1ccccc1-3 | – | 1000 to 10000 | –
CS(=O)(=O)NC(=O)c1ccc2c(C3CCCCC3)c3n(c2c1)CC(C(=O)N1CCOCC1)Cc1ccccc1-3 (stereo not shown) [drawing 348] | – | – | 20 to 1000
COC(=O)c1ccc2c(C3CCCCC3)c3n(c2c1)CC(C(=O)N1CCOCC1)=Cc1ccc(Cl)cc1-3 | – | – | > 1000
O=C(O)c1ccc2c(C3CCCCC3)c3n(c2c1)CCCc1nccnc1-3 | – | 1000 to 10000 | –
CCOC(=O)/C=C/c1ccc(NC(=O)C2(NC(=O)c3ccc4c(C5CCCCC5)c5n(c4c3)CCNc3ccccc3-5)CCCC2)cc1 | – | 10 to 1000 | –
O=C(NS(=O)(=O)C1CC1)c1ccc2c(C3CCCCC3)c3n(c2c1)CC(C(=O)N1CCOCC1)Cc1ccccc1-3 (stereo not shown) [drawing 288] | – | – | 20 to 1000
O=C(O)c1ccc2c(C3CCCCC3)c3n(c2c1)C(=O)NCc1ccccc1-3 | – | > 10000 | –
CCOC(=O)/C=C/c1ccc(NC(=O)C2(NC(=O)c3ccc4c(C5CCCCC5)c5n(c4c3)CCN(C(=O)OC(C)(C)C)c3ccccc3-5)CCCC2)cc1 | – | 10 to 1000 | –
O=C(NC1(C(=O)O)CCNCC1)c1ccc2c(C3CCCCC3)c3n(c2c1)CC=Cc1ccccc1-3 | – | 1000 to 10000 | –
COC(=O)/C=C/c1ccc(NC(=O)C2(NC(=O)c3ccc4c(C5CCCCC5)c5n(c4c3)CC(C(=O)NCCN(C)C)=Cc3ccccc3-5)CCCC2)cc1 | – | 10 to 1000 | –
CN1C(=O)Cn2c(c(C3CCCCC3)c3ccc(C(=O)NS(=O)(=O)N(C)C)cc32)-c2ccccc21 | – | 10 to 1000 | –
COC(=O)c1ccc2c(C3CCCCC3)c3n(c2c1)CC(C(=O)N1C[C@@H](C)O[C@@H](C)C1)=Cc1occc1-3 | > 4000 | – | –
COC(=O)/C=C/c1ccc(NC(=O)C2(NC(=O)c3ccc4c(C5CCCCC5)c5n(c4c3)CC(=O)N(C)c3ccccc3-5)CCCC2)cc1 | – | 10 to 1000 | –
CN1Cc2ccccc2-c2c(C3CCCCC3)c3ccc(C(=O)O)cc3n2C1=O | – | > 10000 | –
CS(=O)(=O)NC(=O)c1ccc2c(C3CCCCC3)c3n(c2c1)CC(C(=O)N1CCOCC1)Cc1ccccc1-3 (stereo not shown) [drawing 349] | – | – | 20 to 1000
O=C(O)c1ccc2c(C3CCCCC3)c3n(c2c1)C/C=C\COc1ccccc1-3 | – | 1000 to 10000 | –

SMILES | IC50 ([1]; preincubation protocol) [nM] | EC50 [2] [nM] | IC50 [1, 3] [nM]
COC(=O)C1=Cc2cc(N(C)C)ccc2-c2c(C3CCCCC3)c3ccc(C(=O)OC)cc3n2C1 | > 12500 | – | –
COC(=O)/C=C/c1ccc(NC(=O)C2(NC(=O)c3ccc4c(C5CCCCC5)c5n(c4c3)CCCn3ccnc3-5)CCCC2)cc1 | – | 1000 to 10000 | –
O=C(O)c1ccc2c(C3CCCCC3)c3n(c2c1)CCCc1nc[nH]c1-3 | – | > 10000 | –
COC(=O)C1=Cc2occc2-c2c(C3CCCCC3)c3ccc(C(=O)OC)cc3n2C1 | > 12500 | – | –
COC(=O)c1ccc2c(C3CCCCC3)c3n(c2c1)CC(C(=O)O)=Cc1occc1-3 | 1000 to 10000 | – | –
COC(=O)/C=C/c1ccc(NC(=O)C2(NC(=O)c3ccc4c(C5CCCCC5)c5n(c4c3)CCCc3nc[nH]c3-5)CCCC2)cc1 | – | 1000 to 10000 | –
CC1=C(C(=O)N2CCOCC2)Cn2c(c(C3CCCCC3)c3ccc(C(=O)NS(=O)(=O)N(C)C)cc32)-c2ccccc21 | – | 10 to 1000 | –
COC(=O)c1ccc2c(C3CCCCC3)c3n(c2c1)CC(C(=O)NCC=O)=Cc1cc(OC)ccc1-3 | 10 to 1000 | – | –
O=C(O)/C=C/c1ccc(NC(=O)C2(NC(=O)c3ccc4c(C5CCCCC5)c5n(c4c3)CCCc3nc[nH]c3-5)CCCC2)cc1 | – | 1000 to 10000 | –
O=C(NS(=O)(=O)C1CC1)c1ccc2c(C3CCCCC3)c3n(c2c1)CC(C(=O)N1CCOCC1)Cc1ccccc1-3 (stereo not shown) [drawing 289] | – | – | 20 to 1000
COC(=O)/C=C/c1ccc(NC(=O)C2(NC(=O)c3ccc4c(C5CCCCC5)c5n(c4c3)CCCc3nccnc3-5)CCCC2)cc1 | – | 1000 to 10000 | –
COc1cc2c(cn1)-c1c(C3CCCCC3)c3ccc(C(=O)O)cc3n1CC(C(=O)N1C[C@@H](C)O[C@@H](C)C1)=C2 | – | 1000 to 10000 | –
COC(=O)c1ccc2c(C3CCCCC3)c3n(c2c1)C(O)c1cc(N(C)C)ccc1-3 (stereo not shown) | > 4000 | – | –
O=C(O)c1ccc(-c2cnc(NC(=O)C3(NC(=O)c4ccc5c(C6CCCCC6)c6n(c5c4)CC=Cc4ccccc4-6)CCCC3)s2)cc1 | – | 10 to 1000 | –
COC(=O)c1ccc2c(C3CCCCC3)c3n(c2c1)CC(C(=O)N1C[C@@H](C)O[C@@H](C)C1)=Cc1c(OC)cccc1-3 | – | > 3300 | –
COC(=O)c1ccc2c(C3CCCCC3)c3n(c2c1)CC(C(=O)N1CCOCC1)=Cc1occc1-3 | > 4000 | – | –
CC(C)(C)OC(=O)N1CCCCn2c(c(C3CCCCC3)c3ccc(C(=O)NC4(C(=O)Nc5ccc(/C=C/C(=O)O)cc5)CCCC4)cc32)-c2ccccc21 | – | 1000 to 10000 | –
COC(=O)c1ccc2c(C3CCCCC3)c3n(c2c1)CC(C(=O)OCc1ccccc1)=Cc1ccccc1-3 [drawing 322] | – | – | > 1000
O=C(O)c1ccc2c(C3CCCCC3)c3n(c2c1)CCNc1ccccc1-3 | – | 1000 to 10000 | –

Source: patent US7348425B2, “Inhibitors of HCV replication” (Bristol-Myers Squibb Company, priority 2004, dated 2008)
